Assay: xn = mol fraction of the nth substance listed
Conditions: 101 kPa, Liquid; for speed of sound: Frequency=3 MHz, Sing-around technique in a fixed-path interferometer; for mass density: Vibrating tube method

ClC(Cl)Cl [trichloromethane] + CN1CCCC1=O
Conditions | mass density [kg/m3] | speed of sound [m/s]
293.14 K, x2 = 0.1079 | 1437.79 | 1051.6
293.15 K, x2 = 0 | 1488.55 | 1000.9
293.15 K, x2 = 0.1061 | 1438.96 | 1050
293.15 K, x2 = 0.2054 | 1390.74 | 1098.6
293.15 K, x2 = 0.2994 | 1345.24 | 1146
293.15 K, x2 = 0.4032 | 1294.06 | 1198.4
293.15 K, x2 = 0.4961 | 1249.81 | 1248.4
293.15 K, x2 = 0.6006 | 1201.33 | 1307.8
293.15 K, x2 = 0.6854 | 1163.12 | 1359.8
293.15 K, x2 = 0.7986 | 1114.37 | 1430.8
298.14 K, x2 = 0.1079 | 1429.34 | 1034.9
298.14 K, x2 = 0.2994 | 1338.24 | 1130.2
298.14 K, x2 = 0.7986 | 1109.43 | 1413
298.15 K, x2 = 0 | 1479.07 | 984.33
298.15 K, x2 = 0.2054 | 1383.07 | 1082.1
298.15 K, x2 = 0.4032 | 1287.66 | 1181.9
298.15 K, x2 = 0.4961 | 1243.85 | 1231.9
298.15 K, x2 = 0.6006 | 1195.78 | 1290.7
298.15 K, x2 = 0.6854 | 1157.85 | 1342.1
298.16 K, x2 = 0.1061 | 1430.5 | 1033.6
303.14 K, x2 = 0.1079 | 1420.85 | 1018.3
303.14 K, x2 = 0.2994 | 1331.2 | 1114.1
303.14 K, x2 = 0.7986 | 1104.48 | 1395.1
303.15 K, x2 = 0.1061 | 1422 | 1016.3
303.15 K, x2 = 0.2054 | 1375.36 | 1065.2
303.15 K, x2 = 0.4032 | 1281.24 | 1165.2
303.15 K, x2 = 0.4961 | 1237.89 | 1215.2
303.15 K, x2 = 0.6006 | 1190.22 | 1273.5
303.15 K, x2 = 0.6854 | 1152.57 | 1324.2
303.16 K, x2 = 0 | 1469.52 | 967.53
308.14 K, x2 = 0.1079 | 1412.32 | 1001.8
308.14 K, x2 = 0.2994 | 1324.14 | 1098.1
308.14 K, x2 = 0.7986 | 1099.52 | 1377.3
308.15 K, x2 = 0 | 1459.91 | 950.62
308.15 K, x2 = 0.1061 | 1413.45 | 999.25
308.15 K, x2 = 0.2054 | 1367.63 | 1048.3
308.15 K, x2 = 0.4032 | 1274.79 | 1148.5
308.15 K, x2 = 0.4961 | 1231.6 | 1198.6
308.15 K, x2 = 0.6006 | 1184.64 | 1256.3
308.15 K, x2 = 0.6854 | 1147.28 | 1306.2

O=C1CCCN1 [2-pyrrolidinone] + CC#N
Conditions | mass density [kg/m3] | speed of sound [m/s]
298.15 K, x1 = 0.1025 | 827.196 | 1311.2
298.15 K, x1 = 0.1865 | 864.997 | 1337
298.15 K, x1 = 0.3069 | 913.434 | 1380.2
298.15 K, x1 = 0.3976 | 946.686 | 1414.4
298.15 K, x1 = 0.4974 | 979.551 | 1451.9
298.15 K, x1 = 0.605 | 1012.17 | 1492.9
298.15 K, x1 = 0.695 | 1036.85 | 1526.1
298.15 K, x1 = 0.7932 | 1061.58 | 1561.6
298.15 K, x1 = 0.8972 | 1085.63 | 1598.1
303.15 K, x1 = 0.1025 | 821.985 | –
303.15 K, x1 = 0.1865 | 859.946 | 1317.8
303.15 K, x1 = 0.3069 | 908.581 | 1362.3
303.15 K, x1 = 0.3976 | 941.969 | 1396.8
303.15 K, x1 = 0.4974 | 974.979 | 1434.8
303.15 K, x1 = 0.605 | 1007.72 | 1476
303.15 K, x1 = 0.695 | 1032.51 | 1509.5
303.15 K, x1 = 0.7932 | 1057.33 | 1545.2
303.15 K, x1 = 0.8972 | 1081.46 | 1582.1
308.15 K, x1 = 0.1025 | 816.754 | –
308.15 K, x1 = 0.1865 | 854.873 | 1298.8
308.15 K, x1 = 0.3069 | 903.718 | 1344.4
308.15 K, x1 = 0.3976 | 937.251 | 1379.3
308.15 K, x1 = 0.4974 | 970.394 | 1417.7
308.15 K, x1 = 0.695 | 1028.15 | 1492.4
308.15 K, x1 = 0.8972 | 1077.29 | 1565.9
308.16 K, x1 = 0.605 | 1003.27 | 1459.2
308.16 K, x1 = 0.7932 | 1053.07 | 1528.7
313.15 K, x1 = 0.1025 | 811.493 | –
313.15 K, x1 = 0.1865 | 849.779 | 1280.1
313.15 K, x1 = 0.3069 | 898.84 | 1326.7
313.15 K, x1 = 0.605 | 998.811 | 1442.4
313.15 K, x1 = 0.7932 | 1048.82 | 1512.3
313.15 K, x1 = 0.8972 | 1073.12 | 1549.8
313.16 K, x1 = 0.3976 | 932.515 | 1361.9
313.16 K, x1 = 0.4974 | 965.8 | 1400.7
313.16 K, x1 = 0.695 | 1023.8 | 1475.5
318.15 K, x1 = 0.1025 | 806.204 | –
318.15 K, x1 = 0.1865 | 844.673 | 1261.4
318.15 K, x1 = 0.3976 | 927.77 | 1344.6
318.15 K, x1 = 0.605 | 994.35 | 1425.7
318.15 K, x1 = 0.695 | 1019.44 | 1458.7
318.15 K, x1 = 0.7932 | 1044.56 | 1496.1
318.15 K, x1 = 0.8972 | 1068.96 | 1533.8
318.16 K, x1 = 0.3069 | 893.944 | 1308.8
318.16 K, x1 = 0.4974 | 961.2 | 1383.7
323.15 K, x1 = 0.8972 | 1064.8 | 1517.9
323.16 K, x1 = 0.1025 | 800.887 | –
323.16 K, x1 = 0.1865 | 839.54 | 1242.8
323.16 K, x1 = 0.3069 | 889.032 | 1290.5
323.16 K, x1 = 0.3976 | 923.008 | 1327.3
323.16 K, x1 = 0.4974 | 956.587 | 1366.8
323.16 K, x1 = 0.605 | 989.88 | 1408.9
323.16 K, x1 = 0.695 | 1015.08 | 1441.8
323.16 K, x1 = 0.7932 | 1040.3 | 1479.9

— the NIST ThermoML archive (doi:10.1021/acs.jced.5b00474)
